Results: patent US20250129031A1, “1,2,3-TRIAZOLE CARBONYL SULFONYLAMIDE COMPOUNDS AND USE THEREOF” (PI INDUSTRIES LTD., priority 2022, published 2025)

System: Meloidogyne incognita
Assay: Meloidogyne incognita test: gall rating on cucumber plants in pots after soil application
Assay type: in vivo
Design: key: 0: no galls; 1: very few small galls; 2: numerous small galls; 3: numerous small galls of which some are grown together; 4: numerous small and some big galls; 25% of roots severely galled; 6: 50% of roots severely galled; 75% of roots severely galled; 8: no healthy roots but plant is still green; 9: roots rotting and plant dying; 10: plant and roots dead
Conditions: 1000 ppm applied to soil inoculated with 5000 eggs & J2s; cucumber seedlings; rated 30 days after application; 0-10 scale (Zeck 1971); untreated check up to 8
Method: Meloidogyne incognita Test:
The trial pots were filled with soil containing a mixture of sand:soil:cocopeat in a ratio of 1:1:1. To the soil of each pot 5 mL of a nematode suspension (Meloidogyne incognita, mix of 5000 eggs & J2s) was added. One hour later the respective test compound at the stated concentration was applied to each pot. 10 days old cucumber seedlings were transplanted into the pots one day after the application. The cucumber plants were allowed to grow at a temperature of 27° C. under greenhouse conditions. The evaluation of the gall rating was recorded 30 days after the application. The plants were carefully uprooted and the roots were thoroughly washed. The gall rating was done on a 0-10 scale as described by Zeck (1971) and shown below: • 0=no galls • 1=very few small galls • 2=numerous small galls • 3=numerous small galls of which some are grown together • 4=numerous small and some big galls • 5=25% of roots severely galled • 6=50% of roots severely galled • 7=75% of roots severely galled • 8=no healthy roots but plant is still green • 9=roots rotting and plant dying • 10=plant and roots dead

| Structure (SMILES) | gall rating scale |
| --- | --- |
| Cc1ccc(F)cc1S(=O)(=O)NC(=O)c1nnn(-c2ccc(OC(F)(F)F)cc2Cl)c1C(F)(F)F [Compound 597] | 4 |
| Cc1c(C(=O)NS(=O)(=O)c2ccccc2C(F)(F)F)nnn1-c1cc(Cl)cc(Cl)c1 [Compound 254] | 4 |
| Cc1c(C(=O)NS(=O)(=O)c2cc(C(F)(F)F)ccc2C(F)(F)F)nnn1-c1ccc(Cl)cc1F [Compound 441] | 4 |
| CCc1c(C(=O)NS(=O)(=O)c2cc(C)ccc2C)nnn1-c1ccc(OC(F)(F)F)cc1Cl [Compound 337, 1-(2-chloro-4-(trifluoromethoxy)phenyl)-N-((2,5-dimethylphenyl)sulfonyl)-5-ethyl-1H-1,2,3-triazole-4-carboxamide] | 4 |
| N#Cc1ccc(-n2nnc(C(=O)NS(=O)(=O)c3cc(Cl)c(F)cc3F)c2C(F)(F)F)c(F)c1 [Compound 610, N-((5-chloro-2,4-difluorophenyl)sulfonyl)-1-(4-cyano-2-fluorophenyl)-5-(trifluoromethyl)-1H-1,2,3-triazole-4-carboxamide] | 4 |
| Cc1c(C(=O)NS(=O)(=O)c2cc(C(F)(F)F)ccc2Br)nnn1-c1ccc(Cl)cc1F [Compound 432] | 4 |
| Cc1c(C(=O)NS(=O)(=O)c2c(F)cc(F)cc2F)nnn1-c1ccc(OC(F)F)cc1Cl [Compound 675] | 4 |
| Cc1c(C(=O)NS(=O)(=O)c2cc(C(F)(F)F)ccc2Cl)nnn1-c1ccc(Cl)cc1F [Compound 446] | 4 |
| O=C(NS(=O)(=O)c1ccc(Cl)cc1Cl)c1nnn(-c2cc(Cl)c(Cl)cc2Cl)c1C(F)(F)F [Compound 709] | 4 |
| Cc1c(C(=O)NS(=O)(=O)c2cc(Cl)ccc2Cl)nnn1-c1ccc(C#N)cc1F [Compound 410] | 4 |
| Cc1c(C(=O)NS(=O)(=O)c2cc(F)ccc2F)nnn1-c1ccc(OC(F)F)cc1Cl [Compound 674] | 4 |
| CCc1c(C(=O)NS(=O)(=O)c2ccccc2Cl)nnn1-c1ccc(OC(F)(F)F)cc1Cl [Compound 338, 1-(2-chloro-4-(trifluoromethoxy)phenyl)-N-((2-chlorophenyl)sulfonyl)-5-ethyl-1H-1,2,3-triazole-4-carboxamide] | 4 |
| O=C(NS(=O)(=O)c1ccc(F)cc1F)c1nnn(-c2ccc(Cl)cc2Cl)c1C(F)(F)F [Compound 218] | 4 |
| N#Cc1ccc(-n2nnc(C(=O)NS(=O)(=O)c3cc(C(F)(F)F)ccc3C(F)(F)F)c2C(F)(F)F)c(Cl)c1 [Compound 390, N-((2,5-bis(trifluoromethyl)phenyl)sulfonyl)-1-(2-chloro-4-cyanophenyl)-5-(trifluoromethyl)-1H-1,2,3-triazole-4-carboxamide] | 4 |
| Cc1ccccc1S(=O)(=O)NC(=O)c1nnn(-c2ccc(C#N)cc2Cl)c1C [Compound 459] | 4 |
| O=C(NS(=O)(=O)c1cc(Cl)ccc1Cl)c1nnn(-c2ccc(OC(F)(F)F)cc2Cl)c1C1CC1 [Compound 229, 1-(2-chloro-4-(trifluoromethoxy)phenyl)-5-cyclopropyl-N-((2,5-dichlorophenyl)sulfonyl)-1H-1,2,3-triazole-4-carboxamide] | 4 |
| COc1ccc(Cl)c(S(=O)(=O)NC(=O)c2nnn(-c3ccc(Cl)cc3C(F)(F)F)c2C)c1 [Compound 61] | 4 |
| Cc1c(C(=O)NS(=O)(=O)c2cc(Cl)c(Cl)cc2Cl)nnn1-c1ccc(OC(F)F)cc1Cl [Compound 676] | 4 |
| Cc1c(C(=O)NS(=O)(=O)c2ccc(F)cc2F)nnn1-c1cc(Cl)c(Cl)cc1Cl [Compound 683] | 4 |
| O=C(NS(=O)(=O)c1cc(C(F)(F)F)ccc1Cl)c1nnn(-c2ccc(Cl)cc2F)c1C(F)(F)F [Compound 631] | 4 |
| Cc1c(C(=O)NS(=O)(=O)c2cc(Cl)ccc2F)nnn1-c1ccc(C#N)cc1Cl [Compound 497] | 4 |
| Cc1c(C(=O)NS(=O)(=O)c2ccccc2C(F)(F)F)nnn1-c1ccc(C#N)cc1Cl [Compound 271] | 4 |
| Cc1c(C(=O)NS(=O)(=O)c2cc(Cl)ccc2Cl)nnn1-c1cc(Cl)cc(Cl)c1 [Compound 8, 1-(3,5-dichlorophenyl)-N-((2,5-dichlorophenyl)sulfonyl)-5-methyl-1H-1,2,3-triazole-4-carboxamide] | 4 |
| Cc1c(C(=O)NS(=O)(=O)c2ccccc2C(F)(F)F)nnn1-c1ccc(OC(F)F)cc1Cl [Compound 669] | 4 |
| N#Cc1ccc(-n2nnc(C(=O)NS(=O)(=O)c3ccccc3C(F)(F)F)c2C(F)(F)F)c(Cl)c1 [Compound 394, 1-(2-chloro-4-cyanophenyl)-5-(trifluoromethyl)-N-((2-(trifluoromethyl)phenyl)sulfonyl)-1H-1,2,3-triazole-4-carboxamide] | 4 |

| Structure (SMILES) | gall rating scale |
| --- | --- |
| COc1ccc(C)cc1S(=O)(=O)NC(=O)c1nnn(-c2ccc(OC(F)(F)F)cc2Cl)c1C(F)(F)F [Compound 590] | 4 |
| N#Cc1ccc(-n2nnc(C(=O)NS(=O)(=O)c3ccccc3OC(F)(F)F)c2C(F)(F)F)c(Cl)c1 [Compound 395, 1-(2-chloro-4-cyanophenyl)-N-((2-(trifluoromethoxy)phenyl)sulfonyl)-5-(trifluoromethyl)-1H-1,2,3-triazole-4-carboxamide] | 4 |
| Cc1ccc(C)c(S(=O)(=O)NC(=O)c2nnn(-c3ccc(C#N)cc3Cl)c2C(F)(F)F)c1 [Compound 389, 1-(2-chloro-4-cyanophenyl)-N-((2,5-dimethylphenyl)sulfonyl)-5-(trifluoromethyl)-1H-1,2,3-triazole-4-carboxamide] | 4 |
| Cc1c(C(=O)NS(=O)(=O)c2cc(C(F)(F)F)ccc2Cl)nnn1-c1ccc(OC(F)F)cc1Cl [Compound 665] | 4 |
| Cc1c(C(=O)NS(=O)(=O)c2ccccc2Cl)nnn1-c1ccc(OC(F)F)cc1Cl [Compound 671] | 4 |
| CCc1c(C(=O)NS(=O)(=O)c2cc(C(F)(F)F)ccc2Cl)nnn1-c1ccc(Cl)cc1Cl [Compound 231] | 4 |
| Cc1c(C(=O)NS(=O)(=O)c2ccccc2F)nnn1-c1cc(Cl)cc(C(F)(F)F)c1 [Compound 96] | 4 |
| O=C(NS(=O)(=O)c1ccccc1OC(F)(F)F)c1nnn(-c2cc(Cl)ccc2Cl)c1C(F)(F)F [Compound 370, 1-(2,5-dichlorophenyl)-N-((2-(trifluoromethoxy)phenyl)sulfonyl)-5-(trifluoromethyl)-1H-1,2,3-triazole-4-carboxamide] | 4 |
| Cc1ccc(C)c(S(=O)(=O)NC(=O)c2nnn(-c3ccc(C#N)cc3F)c2C(F)(F)F)c1 [Compound 536, 1-(4-cyano-2-fluorophenyl)-N-((2,5-dimethylphenyl)sulfonyl)-5-(trifluoromethyl)-1H-1,2,3-triazole-4-carboxamide] | 4 |
| Cc1c(C(=O)NS(=O)(=O)c2ccccc2Cl)nnn1-c1ccc(C#N)cc1Cl [Compound 272] | 4 |
| COc1ccc(Cl)c(S(=O)(=O)NC(=O)c2nnn(-c3ccc(C#N)cc3F)c2C(F)(F)F)c1 [Compound 538, N-((2-chloro-5-methoxyphenyl)sulfonyl)-1-(4-cyano-2-fluorophenyl)-5-(trifluoromethyl)-1H-1,2,3-triazole-4-carboxamide] | 4 |
| COc1ccc(C)cc1S(=O)(=O)NC(=O)c1nnn(-c2ccc(Cl)cc2Cl)c1C(F)(F)F [Compound 599] | 4 |
| Cc1c(C(=O)NS(=O)(=O)c2cc(C(F)(F)F)ccc2F)nnn1-c1ccc(Cl)cc1Cl [Compound 240] | 4 |
| Cc1c(C(=O)NS(=O)(=O)c2ccccc2F)nnn1-c1ccc(Cl)cc1F [Compound 445] | 4 |
| Cc1c(C(=O)NS(=O)(=O)c2cc(F)ccc2F)nnn1-c1ccc(C#N)cc1Cl [Compound 269] | 4 |
| Cc1c(C(=O)NS(=O)(=O)c2ccccc2C(F)(F)F)nnn1-c1cc(Cl)ccc1Cl [Compound 259, 1-(2,5-dichlorophenyl)-5-methyl-N-((2-(trifluoromethyl)phenyl)sulfonyl)-1H-1,2,3-triazole-4-carboxamide] | 4 |
| COc1ccc(Cl)cc1S(=O)(=O)NC(=O)c1nnn(-c2ccc(OC(F)(F)F)cc2Cl)c1C [Compound 586] | 4 |
| Cc1ccc(C)c(S(=O)(=O)NC(=O)c2nnn(-c3ccc(C(F)(F)F)cc3Cl)c2C)c1 [Compound 670] | 4 |
| Cc1c(C(=O)NS(=O)(=O)c2cc(Cl)ccc2F)nnn1-c1ccc(F)cc1F [Compound 691] | 4 |
| Cc1c(C(=O)NS(=O)(=O)c2ccc(F)cc2F)nnn1-c1ccc(OC(F)F)cc1Cl [Compound 672] | 4 |
| O=C(NS(=O)(=O)c1cc(C(F)(F)F)ccc1Cl)c1nnn(-c2ccc(Cl)cc2Cl)c1C(F)(F)F [Compound 210] | 4 |
| Cc1c(C(=O)NS(=O)(=O)c2cc(C(F)(F)F)ccc2Cl)nnn1-c1ccc(C#N)cc1Cl [Compound 315] | 4 |
| Cc1c(C(=O)NS(=O)(=O)c2cc(C(F)(F)F)ccc2Cl)nnn1-c1ccc(Cl)cc1Cl [Compound 33] | 4 |
| Cc1c(C(=O)NS(=O)(=O)c2ccccc2F)nnn1-c1ccc(OC(F)F)cc1Cl [Compound 668] | 4 |
